Results on two compounds are retold here after patent US6476019B1, “Spirocyclic ligands for sigma receptors, and libraries and methods of use thereof” (Sepracor Inc., priority 1999, dated 2002).

One test addresses Human Adrenergic β3 (Homo sapiens, UniProt P13945). Put plainly: Additional receptor assay. Type of test: binding. How it is done:
(§1) Results of Additional Receptor Assays Performed on Compound 31 at a Concentration of 10 μM

The target of a further test is Human Orphanin (ORL1) (Homo sapiens, UniProt P41146). In words: Additional receptor assay. Type of test: binding. The protocol:
as §1

Test [1] concerns Rat Glutamate, NMDA (Agonist). Put plainly: Additional receptor assay. The following applies: 10 μM. It counts as binding. How it is done: as §1
The target of another test is Human Adrenergic β1 (Homo sapiens, UniProt P08588). In words: Additional receptor assay. Type of test: binding. How it is done:
as §1

For the next test, the target named is Human Adrenergic β2 (Homo sapiens, UniProt P07550). In words: Additional receptor assay. It counts as binding. The protocol: as §1
Test [2] concerns the target Rat Glutamate, NMDA (Glycine) (Rattus norvegicus, UniProt P35439). Put plainly: Additional receptor assay. Type of test: binding. The protocol: as §1
Test [3] relates to Rat Glutamate, NMDA (Polyamine). In words: Additional receptor assay. The following applies: 10 μM. Type of test: binding. How it is done: as §1
Another test relates to Rat GABAA Transporter. In words: Additional receptor assay. It counts as binding. Particulars: 10 μM. How it is done:
as §1

Test [4] relates to Rat GABAA Chloride Channel. Put plainly: Additional receptor assay. Type of test: binding. The following applies: 10 μM. How it is done: as §1
The target of a further test is Rat GABAB (Rattus norvegicus, UniProt Q9Z0U4). In words: Additional receptor assay. It counts as binding. The following applies: 10 μM. The protocol:
as §1

Test [5] has as its system Rat Glutamate, NMDA (Phencyclidine). Put plainly: Additional receptor assay. It counts as binding. The following applies: 10 μM. The protocol:
as §1

For the next test, the system named is Rat GABAA Agonist Site. In words: Additional receptor assay. It counts as binding. Particulars: 10 μM. The protocol:
as §1

Another test concerns the target Human Adrenergic α2A (Homo sapiens, UniProt P08913). Put plainly: Additional receptor assay. Type of test: binding. The protocol: as §1
In test [6] the test system is Rat GABAA Benzodiazepine (Central). In words: Additional receptor assay. The following applies: 10 μM. It counts as binding. How it is done:
as §1

Another test deals with Human Adrenergic α2C (Homo sapiens, UniProt P18825). Put plainly: Additional receptor assay. Type of test: binding. The protocol: as §1
A further test deals with Rat Adrenergic α1. In words: Additional receptor assay. The following applies: 10 μM. It counts as binding. How it is done:
as §1

Test [7] addresses Rat GABAA Benzodiazepine (Peripheral) (Rattus norvegicus, UniProt P16257). Put plainly: Additional receptor assay. It counts as binding. How it is done:
as §1

The next test addresses human serotonin 5-HT2A (Homo sapiens, UniProt P28223). In words: Behavioral receptor assays: 5-HT2A. It counts as binding. Particulars: read-out: Receptors (IC50) 5-HT2A. How it is done:
(§2) Various compounds of the present invention (19, 31, and 32) were evaluated in a group of assays based on mammalian cellular receptors associated with behavior. The group consisted of assays base on human dopamine D1, D2L, D3, D4.2, D4.4, D4.7, and D5 receptors, and the transporter; human serotonin 5-HT1A, 5-HT1B, 5-HT1D, 5-HT2A, 5-HT2B, 5-HT2C, 5-HT3, 5-HT5A, 5-HT6, and 5-HT7 receptors, and the human serotonin transporter; guinea pig 5-HT4 and sigma-1 receptors; rat sigma-2 and muscarinic receptors; and human NK1-3 receptors. The following table presents a subset of the results of these assays.

For the next test, the target named is human serotonin 5-HT2B (Homo sapiens, UniProt P41595). In words: Behavioral receptor assays: 5-HT2B. Type of test: binding. The following applies: read-out: Receptors (IC50) 5-HT2B. How it is done:
as §2

The next test deals with Male Wistar rats. In words: MK-801-Induced Psychosis Model. Type of test: in vivo, rat. The following applies: rat, 1 mg/kg i.p.; MK-801 0.3 mg/kg i.p. An excerpt:
The non-competitive NMDA receptor antagonist MK-801 induces stereotypies and hyperactivity in rodents (1) by interacting with the NMDA receptor-associated ion channel. Phencyclidine, which also interferes with the NMDA receptor, produces psychotic effects in humans similar in many respects to schizophrenia. […] Therefore the MK-801-induced activity and stereotypies in rats may represent an appropriate animal model to test the potential efficacy of antipsychotic drugs.
Male Wistar rats (Iffa Crédo, St Germain/l'Arbresle, France), weight 250-300 g were housed 2 per cage on a 12 h/12 h light dark cycle (lights on at 7.00 a.m.) at a room temperature of 21±2° C. for a minimum of 5 days before testing. All animals had access to commercial food and tap water ad libitum.
On the day of the experiment, rats were treated with either reference drug vehicle, the reference drugs haloperidol or clozapine the test compound vehicle or test compounds. After administration, the rats were returned to their home cages for 15 minutes. […] The remaining rats treated with placebo received a second injection of vehicle. The standard injection volume was 2.0 ml/kg. After 10 minutes in the home cages, rats were transferred to the test box (Plexiglas, 29×12×12 cm), 5 minutes before the assessment for accomodation. The test box was cleaned with 70% ethanol before each assessment. Stereotypies, defined as wall-contacts with the snout, and locomotion, defined as turn-rounds of 180°, were assessed during 5 minute periods.

The subject of the next test is Male rats. In words: Elevated plus maze test (anxiolytic effects). It counts as in vivo. Particulars: rat, doses 1 mg/kg and 5 mg/kg. From the text:
In the present study, 32 was investigated on measures of anxiety in an elevated plus-maze test in the rat. In this test, an anxiolytic effect is defined as an increase in the percentage of total entries made onto the open arms and an increase in the percentage of time spent on the open arms of the elevated plus-maze. Anxiogenic drugs reduce both of these measures.
Male rats (Iffa Crédo, St Germain/l'Arbresle, France), weight 220−320 g ate the beginning of the experiment were housed 2 per cage on a 12 h/12 h light dark cycle (lights on at 7.00 a.m.) at a room temperature of 21±2° C. for a minimum of 5 days before testing. All animals had access to commercial food and tap water ad libitum.
The elevated plus maze test consists of four arms connected by a central square, the arms are all horizontal and at 90° […]. angle from each other making the shape of a plus sign. The maze is raised to a height of 50 cm from the ground. […] These arms are therefore referred to as the enclosed arms, respectively.
Each test was started by placing the rat at the intersect of the maze arms facing into one of the enclosed arms. The rat had free access to all 4 arms for the period of 5 min. The number and duration of entries into each arm during this time were scored manually.
Undruged rats typically spend 30-60 seconds on the open arms and about 3 minutes on the closed arms. […]

Rat GABAB, sequence (Q9Z0U4 17-960 limits assumed): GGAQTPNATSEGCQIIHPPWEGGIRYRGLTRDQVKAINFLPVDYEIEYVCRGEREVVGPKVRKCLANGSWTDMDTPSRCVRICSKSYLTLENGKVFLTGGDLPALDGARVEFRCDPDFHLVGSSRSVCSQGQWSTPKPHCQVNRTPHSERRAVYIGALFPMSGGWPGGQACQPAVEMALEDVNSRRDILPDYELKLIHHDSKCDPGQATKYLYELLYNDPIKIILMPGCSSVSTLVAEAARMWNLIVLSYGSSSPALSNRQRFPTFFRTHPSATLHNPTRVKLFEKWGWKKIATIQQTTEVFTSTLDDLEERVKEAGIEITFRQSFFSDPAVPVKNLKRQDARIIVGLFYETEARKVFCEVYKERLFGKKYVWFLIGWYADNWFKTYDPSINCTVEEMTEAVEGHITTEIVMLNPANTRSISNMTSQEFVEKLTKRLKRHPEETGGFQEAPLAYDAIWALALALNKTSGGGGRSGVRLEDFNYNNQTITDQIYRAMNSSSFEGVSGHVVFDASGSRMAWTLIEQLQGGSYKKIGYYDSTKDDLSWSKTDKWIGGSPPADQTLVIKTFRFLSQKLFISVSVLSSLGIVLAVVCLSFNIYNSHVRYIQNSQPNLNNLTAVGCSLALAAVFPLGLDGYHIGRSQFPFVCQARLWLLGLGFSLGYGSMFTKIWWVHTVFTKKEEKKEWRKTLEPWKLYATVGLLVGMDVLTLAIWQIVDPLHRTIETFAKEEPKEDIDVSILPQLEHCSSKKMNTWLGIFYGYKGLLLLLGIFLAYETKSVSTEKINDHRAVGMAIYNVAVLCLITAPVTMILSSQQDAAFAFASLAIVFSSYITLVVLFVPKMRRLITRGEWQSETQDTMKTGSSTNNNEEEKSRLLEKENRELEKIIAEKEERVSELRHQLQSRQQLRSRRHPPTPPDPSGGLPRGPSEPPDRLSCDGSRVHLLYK
Rat GABAB, sequence (O88871 41-940 partner): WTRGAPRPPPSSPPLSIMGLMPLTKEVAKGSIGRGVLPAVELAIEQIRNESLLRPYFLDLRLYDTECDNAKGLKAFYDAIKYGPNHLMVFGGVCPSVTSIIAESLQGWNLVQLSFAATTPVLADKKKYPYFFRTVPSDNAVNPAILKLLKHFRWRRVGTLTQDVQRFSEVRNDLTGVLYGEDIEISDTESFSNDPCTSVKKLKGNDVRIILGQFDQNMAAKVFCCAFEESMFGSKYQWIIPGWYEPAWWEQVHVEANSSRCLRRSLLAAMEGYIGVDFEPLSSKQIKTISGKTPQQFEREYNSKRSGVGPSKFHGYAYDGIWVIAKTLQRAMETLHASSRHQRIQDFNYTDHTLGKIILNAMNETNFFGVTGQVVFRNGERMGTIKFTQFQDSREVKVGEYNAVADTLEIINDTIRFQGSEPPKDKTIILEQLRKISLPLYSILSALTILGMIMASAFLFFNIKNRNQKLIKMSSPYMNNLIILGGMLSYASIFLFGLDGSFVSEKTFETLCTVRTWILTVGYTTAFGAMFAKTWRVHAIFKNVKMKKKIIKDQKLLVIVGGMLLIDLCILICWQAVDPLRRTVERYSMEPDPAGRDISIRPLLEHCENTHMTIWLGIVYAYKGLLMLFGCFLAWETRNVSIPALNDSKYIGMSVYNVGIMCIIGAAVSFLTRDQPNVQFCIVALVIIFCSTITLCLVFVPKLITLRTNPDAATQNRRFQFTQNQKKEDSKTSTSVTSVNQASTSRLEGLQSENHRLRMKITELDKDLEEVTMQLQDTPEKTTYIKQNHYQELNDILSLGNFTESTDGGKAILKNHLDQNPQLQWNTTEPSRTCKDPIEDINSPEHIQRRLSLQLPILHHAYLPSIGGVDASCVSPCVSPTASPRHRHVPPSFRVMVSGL
human serotonin 5-HT2B, sequence (P41595 whole entry): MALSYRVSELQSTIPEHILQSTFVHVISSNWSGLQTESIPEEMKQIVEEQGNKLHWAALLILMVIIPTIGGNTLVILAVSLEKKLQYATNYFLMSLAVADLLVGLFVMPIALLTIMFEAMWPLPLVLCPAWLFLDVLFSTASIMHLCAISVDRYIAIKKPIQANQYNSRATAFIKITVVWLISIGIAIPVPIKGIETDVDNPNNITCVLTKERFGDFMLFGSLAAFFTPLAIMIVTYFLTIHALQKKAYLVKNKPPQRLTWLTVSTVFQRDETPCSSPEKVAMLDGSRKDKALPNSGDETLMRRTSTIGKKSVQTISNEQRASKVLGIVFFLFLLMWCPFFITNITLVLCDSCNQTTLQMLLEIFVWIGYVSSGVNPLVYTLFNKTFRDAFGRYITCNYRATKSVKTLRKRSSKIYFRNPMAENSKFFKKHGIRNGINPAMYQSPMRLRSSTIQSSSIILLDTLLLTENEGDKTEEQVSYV
Human Adrenergic β2, sequence (P07550 whole entry): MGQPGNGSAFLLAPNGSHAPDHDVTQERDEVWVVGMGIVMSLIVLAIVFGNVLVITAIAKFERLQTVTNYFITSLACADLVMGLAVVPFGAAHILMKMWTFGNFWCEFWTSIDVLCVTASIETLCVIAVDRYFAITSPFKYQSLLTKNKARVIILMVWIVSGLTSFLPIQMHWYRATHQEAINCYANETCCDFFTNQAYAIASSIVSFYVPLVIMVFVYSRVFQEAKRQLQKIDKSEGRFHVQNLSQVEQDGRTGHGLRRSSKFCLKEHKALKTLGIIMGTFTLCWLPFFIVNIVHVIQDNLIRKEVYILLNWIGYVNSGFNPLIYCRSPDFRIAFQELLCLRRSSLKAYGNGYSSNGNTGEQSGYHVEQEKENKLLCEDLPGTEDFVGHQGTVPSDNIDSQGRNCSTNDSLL
Human Adrenergic β3, sequence (P13945 whole entry): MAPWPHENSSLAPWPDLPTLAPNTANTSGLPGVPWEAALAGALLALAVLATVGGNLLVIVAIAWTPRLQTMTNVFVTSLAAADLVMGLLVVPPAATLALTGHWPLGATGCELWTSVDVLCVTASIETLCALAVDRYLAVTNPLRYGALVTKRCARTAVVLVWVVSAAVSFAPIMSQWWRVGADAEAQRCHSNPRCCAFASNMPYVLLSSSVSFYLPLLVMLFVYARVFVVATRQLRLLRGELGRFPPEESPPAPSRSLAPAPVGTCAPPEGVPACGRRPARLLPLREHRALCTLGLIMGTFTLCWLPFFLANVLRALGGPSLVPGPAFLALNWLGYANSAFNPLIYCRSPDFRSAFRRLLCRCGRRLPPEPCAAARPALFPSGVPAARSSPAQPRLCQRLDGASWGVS
Human Adrenergic α2C, sequence (P18825 whole entry): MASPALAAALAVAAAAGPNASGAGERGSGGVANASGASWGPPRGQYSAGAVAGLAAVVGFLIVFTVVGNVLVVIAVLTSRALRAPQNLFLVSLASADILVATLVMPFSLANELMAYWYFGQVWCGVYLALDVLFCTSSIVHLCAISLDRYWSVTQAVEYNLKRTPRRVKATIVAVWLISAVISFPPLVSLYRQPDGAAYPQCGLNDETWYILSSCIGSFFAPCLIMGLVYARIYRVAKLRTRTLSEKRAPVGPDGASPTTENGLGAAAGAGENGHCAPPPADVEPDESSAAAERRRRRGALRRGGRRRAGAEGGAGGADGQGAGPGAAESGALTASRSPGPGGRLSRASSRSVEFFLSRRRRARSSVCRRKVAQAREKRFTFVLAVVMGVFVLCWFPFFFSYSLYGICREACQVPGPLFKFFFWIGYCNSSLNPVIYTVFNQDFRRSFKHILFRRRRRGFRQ
human serotonin 5-HT2A, sequence (P28223 whole entry): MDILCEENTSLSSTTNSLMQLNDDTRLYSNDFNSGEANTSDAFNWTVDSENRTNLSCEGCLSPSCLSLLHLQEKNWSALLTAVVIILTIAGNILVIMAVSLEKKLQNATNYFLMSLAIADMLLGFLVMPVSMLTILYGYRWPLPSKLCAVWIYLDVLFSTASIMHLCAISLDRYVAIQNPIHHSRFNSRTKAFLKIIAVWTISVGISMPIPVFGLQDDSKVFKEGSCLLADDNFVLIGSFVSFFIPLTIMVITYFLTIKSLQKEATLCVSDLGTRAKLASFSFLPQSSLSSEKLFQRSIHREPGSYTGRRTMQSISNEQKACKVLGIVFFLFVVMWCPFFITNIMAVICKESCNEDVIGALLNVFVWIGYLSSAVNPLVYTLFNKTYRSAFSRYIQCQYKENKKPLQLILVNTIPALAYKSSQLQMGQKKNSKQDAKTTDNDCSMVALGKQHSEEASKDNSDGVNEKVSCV
Human Orphanin (ORL1), sequence (P41146 whole entry): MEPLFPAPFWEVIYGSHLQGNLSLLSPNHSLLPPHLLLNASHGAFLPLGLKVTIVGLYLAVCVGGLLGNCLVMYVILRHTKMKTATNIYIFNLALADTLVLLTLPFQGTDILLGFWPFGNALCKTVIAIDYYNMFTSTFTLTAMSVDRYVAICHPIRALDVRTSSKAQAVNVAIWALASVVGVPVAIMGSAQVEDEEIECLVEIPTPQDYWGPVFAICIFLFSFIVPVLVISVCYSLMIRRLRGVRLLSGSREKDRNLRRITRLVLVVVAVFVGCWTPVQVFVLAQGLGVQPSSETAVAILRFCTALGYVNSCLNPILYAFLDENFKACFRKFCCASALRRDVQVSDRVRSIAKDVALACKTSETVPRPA
Human Adrenergic β1, sequence (P08588 whole entry): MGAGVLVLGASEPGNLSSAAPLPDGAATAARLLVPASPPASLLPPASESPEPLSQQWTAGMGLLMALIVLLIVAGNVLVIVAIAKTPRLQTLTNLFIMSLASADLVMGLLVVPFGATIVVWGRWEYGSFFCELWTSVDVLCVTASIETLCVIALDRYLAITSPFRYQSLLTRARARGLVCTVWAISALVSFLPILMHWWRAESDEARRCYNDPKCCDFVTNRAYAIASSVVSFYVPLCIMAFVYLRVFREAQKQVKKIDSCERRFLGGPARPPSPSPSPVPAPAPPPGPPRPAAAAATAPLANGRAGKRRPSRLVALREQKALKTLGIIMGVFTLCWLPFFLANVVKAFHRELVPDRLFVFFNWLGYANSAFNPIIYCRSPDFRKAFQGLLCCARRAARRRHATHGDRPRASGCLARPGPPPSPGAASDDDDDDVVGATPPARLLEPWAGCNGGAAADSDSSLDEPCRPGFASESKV

As to `O=C1CCC2(CCN(Cc3ccc(F)cc3)CC2)Nc2ccccc21` [Compound 31, 1′-(4-fluorobenzyl)-3,4-dihydrospiro[5H-1-benzazepine-2(1H)-4′-piperidin]-5-one], the inhibition at 10 µM against Human Adrenergic β3 amounted to 19%; on Human Orphanin (ORL1) it was 12%; on Human Adrenergic β1 it was 3%; on Human Adrenergic β2, 15%; in [2], 2%; against Human Adrenergic α2A, 34%. The figures for the inhibition at 10 µM (at Human Adrenergic α2C; in test [7]) were 2% and 16%, respectively. Moreover, the “% Inhibition Rat Glutamate, NMDA (Agonist)” value in test [1] was “No Inhibition”. Also, the “% Inhibition Rat Glutamate, NMDA (Polyamine)” value in test [3] came to 12%. The “% Inhibition Rat GABAA Transporter” value in the test with Rat GABAA Transporter is given as “No Inhibition”. In addition, in test [4], the “% Inhibition Rat GABAA Chloride Channel” value is “No Inhibition”. For the same compound, on Rat GABAB, the “% Inhibition Rat GABAB” value is recorded as “No Inhibition”. Further, in [5], the “% Inhibition Rat Glutamate, NMDA (Phencyclidine)” value is “No Inhibition”. Moreover, in the test on Rat GABAA Agonist Site, the “% Inhibition Rat GABAA Agonist Site” value came to 13%. Further, in [6], the “% Inhibition Rat GABAA Benzodiazepine (Central)” value was 6%. Further, the “% Inhibition Rat Adrenergic α1” value with Rat Adrenergic α1 is reported as 21%.
Turning to `OC1CCC2(CCN(Cc3ccc(F)cc3)CC2)Nc2ccccc21` (racemic) [Compound 32, 1′-(4-fluorobenzyl)-3,4-dihydrospiro[5H-1-benzazepine-2(1H)-4′-piperidin]-5ol], the IC50 on human serotonin 5-HT2A was over 1000 nM. Besides, the IC50 on human serotonin 5-HT2B was under 1000 nM. Also, in the test with Male Wistar rats, the MK-801-induced locomotion entry was “caused a reduction” and the MK-801-induced stereotypies entry is listed as “caused a reduction”. Further, the “anxiolytic effect in elevated plus-maze” value with Male rats is on record as “tendency towards an anxiolytic effects”.

By inhibition is commonly meant how much of the control response was suppressed. As a reminder, the IC50 is the concentration needed to halve the response being measured.
